Measured values: patent publication US12371428B2 (Exelixis, Inc., priority 2019, dated 2025)
Like-named read-outs stand apart in the source and are kept apart here.

How the values were obtained:
Type in all cases: cell-based
[1] = molecular target: KDR (phospho-KDR, VEGF165-stimulated HUVEC cells) (Homo sapiens (Human), UniProt P35968); test: KDR autophosphorylation ELISA in HUVEC cells (Example G); details: cellular activity; KDR autophosphorylation ELISA in HUVEC cells
Method: Human umbilical vein endothelial cells or HUVEC (Lonza #C2519A) were seeded at 2×10^4 cells/well onto 96-well plates (Corning #3904), in EGM-2 growth medium (Lonza #CC-3162) containing 1% Penicillin Streptomycin (Thermo Fisher #15140-122). HUVEC cells were incubated at 37° C., 5% CO2 for 24 h and then starved for 24 h in serum-free EBM-2 basal medium (Lonza #CC-3156) containing 1% Penicillin Streptomycin. Test compounds were serially diluted to produce an 8-point dose curve in fresh serum-free medium to a final concentration of 0.3% DMSO (vehicle) and added to the cells and incubated for 1 h. Cells were then stimulated with 100 ng/mL recombinant human VEGF165 (R&D Systems #293-VE-500) for 5 min, washed with cold PBS, and immediately lysed with […] of cold 1× lysis buffer [20 mM Tris, 137 mM sodium chloride, 2 mM EDTA, 10% glycerol, 1% NP-40 alternative, 1 mM activated sodium orthovanadate, 1 mM PefaBloc SC (Sigma-Aldrich #11429868001), protease/phosphatase inhibitor tablet (Thermo Fisher #A32959)]. Lysates were collected and 100 μL/well added into the human phospho-KDR DuoSet IC ELISA (R&D Systems #DYC1766-2). Assay was performed according to manufacturer's instructions and sample phospho-KDR concentrations were extrapolated using human phospho-KDR control (R&D Systems #841421) as a standard. Positive control wells (100% activity) contained VEGF165-stimulated, DMSO-treated cell lysates. Negative control wells (0% activity) contained non-stimulated cell lysates. IC50 values were calculated by nonlinear regression analysis using a 4-parameter logistic curve fit in ActivityBase XE (IDBS).

[2] = molecular target: Met (phospho-Met, HGF-stimulated PC-3 prostate cancer cells) (Homo sapiens (Human), UniProt P08581); test: Met autophosphorylation ELISA in PC-3 cells (Example F); details: cellular activity, read-out: c-Met IC50
Method: PC-3 prostate cancer cells (ATCC #CRL-1435) were seeded at 4×10^4 cells/well onto 24-well plates (Greiner #662165), in DMEM (Thermo Fisher #11995-040) containing 10% FBS (Thermo Fisher #26140-079), 1% MEM NEAA (Thermo Fisher #11140-050), 1% GlutaMax (Thermo Fisher #35050-061), and 1% Penicillin Streptomycin (Thermo Fisher #15140-122). PC-3 cells were incubated at 37° C., 5% CO2 for 24 h and then starved for 3 h in serum-free medium. Test compounds were serially diluted to produce an 8-point dose curve in fresh serum-free medium to a final concentration of 0.3% DMSO (vehicle) and added to the cells and incubated for 1 h. Cells were then stimulated with 100 ng/mL recombinant human HGF (R&D Systems #294-HG-250) for 10 min, washed with cold PBS, and immediately lysed with […] of cold 1× lysis buffer [20 mM Tris, 137 mM sodium chloride, 2 mM EDTA, 10% glycerol, 1% NP-40 alternative, 1 mM activated sodium orthovanadate, 1 mM PefaBloc SC (Sigma-Aldrich #11429868001), protease/phosphatase inhibitor tablet (Thermo Fisher #A32959)]. Lysates were clarified by centrifugation and 100 μL/well added into the PathScan phospho-Met (panTyr) Sandwich ELISA (Cell Signaling Technology #7333). Assay was performed according to manufacturer's instructions. Positive control wells (100% activity) contained HGF-stimulated, DMSO-treated cell lysates. Negative control wells (0% activity) contained HGF-stimulated, reference inhibitor-treated cell lysates. IC50 values were calculated by nonlinear regression analysis using a 4-parameter logistic curve fit in ActivityBase XE (IDBS).

[3] = molecular target: Mer (phospho-Mer, MERTK-transfected 293A cells) (Homo sapiens (Human), UniProt Q12866); test: Mer autophosphorylation ELISA in transient transfected 293A cells (Example H); details: cellular activity
Method: 293A cells (Thermo Fisher #R70507) were seeded at 1.5×10^6 cells/well onto 100 mm dish (Greiner #664169), in DMEM (Thermo Fisher #11995-040) containing 10% FBS (Thermo Fisher #26140-079), 1% MEM NEAA (Thermo Fisher #11140-050), 1% GlutaMax (Thermo Fisher #35050-061), and 1% Penicillin Streptomycin (Thermo Fisher #15140-122). 293A cells were incubated at 37° C., 5% CO2 for 24 h and then transfected with […] MERTK DNA (Genecopoeia #EX-Z8208-M02) using TransIT LT1 transfection reagent (Mirus-Bio #MIR2305). After 24 h incubation, the transfected 293A cells were seeded at 1×10^5 cells/well onto 96-well plates (Corning #3904) in DMEM growth medium overnight. Test compounds were serially diluted to produce an 8-point dose curve in fresh serum-free medium to a final concentration of 0.3% DMSO (vehicle) and added to the cells and incubated for 1 h. Cells were then immediately lysed with 150 μL of cold 1× lysis buffer [20 mM Tris, 137 mM sodium chloride, 2 mM EDTA, 10% glycerol, 1% NP-40 alternative, 1 mM activated sodium orthovanadate, 1 mM PefaBloc SC (Sigma-Aldrich #11429868001), protease/phosphatase inhibitor tablet (Thermo Fisher #A32959)]. Lysates were clarified by centrifugation and 50 µL/well added in to the human phospho-Mer DuoSet IC ELISA (R&D Systems #DYC2579-2). Assay was performed according to manufacturer's instructions and sample phospho-Mer concentrations were extrapolated using human phospho-Mer control (R&D Systems #841793) as a standard. Positive control wells (100% activity) contained DMSO-treated cell lysates. Negative control wells (0% activity) contained reference inhibitor-treated cell lysates. IC50 values were calculated by nonlinear regression analysis using a 4-parameter logistic curve fit in ActivityBase XE (JDBS).

[4] = Met autophosphorylation ELISA in PC-3 cells
[5] = Mer autophosphorylation ELISA in transient transfected 293A cells

Sequence of Met (phospho-Met, HGF-stimulated PC-3 prostate cancer cells) (P08581 25-1390): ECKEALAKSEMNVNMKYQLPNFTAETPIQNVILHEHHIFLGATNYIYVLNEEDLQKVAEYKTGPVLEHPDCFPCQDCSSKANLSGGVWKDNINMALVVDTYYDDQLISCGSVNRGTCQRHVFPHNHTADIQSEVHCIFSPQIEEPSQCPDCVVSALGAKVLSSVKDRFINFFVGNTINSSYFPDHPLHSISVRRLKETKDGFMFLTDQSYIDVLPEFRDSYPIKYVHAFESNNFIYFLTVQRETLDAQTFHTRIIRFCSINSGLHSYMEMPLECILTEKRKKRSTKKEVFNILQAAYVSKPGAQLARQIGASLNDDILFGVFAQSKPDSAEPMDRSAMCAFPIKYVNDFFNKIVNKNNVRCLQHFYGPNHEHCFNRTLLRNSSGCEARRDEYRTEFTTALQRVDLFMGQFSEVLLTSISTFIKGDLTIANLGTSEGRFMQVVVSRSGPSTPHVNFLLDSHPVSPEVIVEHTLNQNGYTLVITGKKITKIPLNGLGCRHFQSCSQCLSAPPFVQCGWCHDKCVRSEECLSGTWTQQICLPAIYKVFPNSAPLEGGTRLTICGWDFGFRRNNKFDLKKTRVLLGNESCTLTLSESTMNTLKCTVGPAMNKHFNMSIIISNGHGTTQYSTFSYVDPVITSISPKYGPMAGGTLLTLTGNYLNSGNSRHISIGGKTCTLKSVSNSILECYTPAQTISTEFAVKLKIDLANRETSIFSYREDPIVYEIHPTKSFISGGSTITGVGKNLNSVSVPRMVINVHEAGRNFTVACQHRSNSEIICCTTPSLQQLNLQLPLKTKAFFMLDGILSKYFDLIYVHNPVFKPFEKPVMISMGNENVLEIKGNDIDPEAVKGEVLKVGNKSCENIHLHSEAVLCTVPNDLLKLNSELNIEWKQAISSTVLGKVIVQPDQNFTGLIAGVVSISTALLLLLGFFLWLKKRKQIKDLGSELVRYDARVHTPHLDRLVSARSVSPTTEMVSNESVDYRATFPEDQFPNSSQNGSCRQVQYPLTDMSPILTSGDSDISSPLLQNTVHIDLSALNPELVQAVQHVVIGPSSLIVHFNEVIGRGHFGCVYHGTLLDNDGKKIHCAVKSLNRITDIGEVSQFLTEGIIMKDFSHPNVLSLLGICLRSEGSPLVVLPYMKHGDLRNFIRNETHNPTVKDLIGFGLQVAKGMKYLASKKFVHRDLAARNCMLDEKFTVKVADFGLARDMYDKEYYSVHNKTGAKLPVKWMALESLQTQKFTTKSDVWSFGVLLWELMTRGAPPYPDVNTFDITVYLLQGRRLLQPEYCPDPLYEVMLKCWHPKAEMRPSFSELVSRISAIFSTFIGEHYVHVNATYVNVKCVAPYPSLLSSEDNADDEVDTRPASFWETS
Sequence of Mer (phospho-Mer, MERTK-transfected 293A cells) (Q12866 21-999): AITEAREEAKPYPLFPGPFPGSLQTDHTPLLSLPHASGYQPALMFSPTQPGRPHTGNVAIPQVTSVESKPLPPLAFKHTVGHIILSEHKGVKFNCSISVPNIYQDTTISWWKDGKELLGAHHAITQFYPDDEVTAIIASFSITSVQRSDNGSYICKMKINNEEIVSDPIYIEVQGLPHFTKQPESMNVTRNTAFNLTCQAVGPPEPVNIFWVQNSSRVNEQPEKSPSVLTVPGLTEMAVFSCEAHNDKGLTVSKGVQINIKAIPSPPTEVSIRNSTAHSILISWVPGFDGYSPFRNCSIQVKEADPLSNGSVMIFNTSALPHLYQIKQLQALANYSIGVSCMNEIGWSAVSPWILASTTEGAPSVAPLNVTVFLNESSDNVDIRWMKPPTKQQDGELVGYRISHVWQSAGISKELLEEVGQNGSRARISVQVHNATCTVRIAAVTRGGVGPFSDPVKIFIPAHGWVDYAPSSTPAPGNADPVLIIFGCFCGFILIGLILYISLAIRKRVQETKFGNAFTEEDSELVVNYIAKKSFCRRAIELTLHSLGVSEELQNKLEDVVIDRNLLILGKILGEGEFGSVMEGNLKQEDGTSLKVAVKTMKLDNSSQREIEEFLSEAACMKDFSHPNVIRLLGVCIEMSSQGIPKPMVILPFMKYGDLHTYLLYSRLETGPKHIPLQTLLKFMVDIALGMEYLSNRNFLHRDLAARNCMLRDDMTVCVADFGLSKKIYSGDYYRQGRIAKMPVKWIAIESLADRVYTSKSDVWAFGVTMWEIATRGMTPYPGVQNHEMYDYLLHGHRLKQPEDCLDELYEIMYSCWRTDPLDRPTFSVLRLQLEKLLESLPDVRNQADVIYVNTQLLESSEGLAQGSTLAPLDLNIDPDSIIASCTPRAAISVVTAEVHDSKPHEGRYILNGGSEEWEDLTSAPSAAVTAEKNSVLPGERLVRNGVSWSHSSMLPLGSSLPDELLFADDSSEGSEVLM
Sequence of KDR (phospho-KDR, VEGF165-stimulated HUVEC cells) (P35968 20-1356): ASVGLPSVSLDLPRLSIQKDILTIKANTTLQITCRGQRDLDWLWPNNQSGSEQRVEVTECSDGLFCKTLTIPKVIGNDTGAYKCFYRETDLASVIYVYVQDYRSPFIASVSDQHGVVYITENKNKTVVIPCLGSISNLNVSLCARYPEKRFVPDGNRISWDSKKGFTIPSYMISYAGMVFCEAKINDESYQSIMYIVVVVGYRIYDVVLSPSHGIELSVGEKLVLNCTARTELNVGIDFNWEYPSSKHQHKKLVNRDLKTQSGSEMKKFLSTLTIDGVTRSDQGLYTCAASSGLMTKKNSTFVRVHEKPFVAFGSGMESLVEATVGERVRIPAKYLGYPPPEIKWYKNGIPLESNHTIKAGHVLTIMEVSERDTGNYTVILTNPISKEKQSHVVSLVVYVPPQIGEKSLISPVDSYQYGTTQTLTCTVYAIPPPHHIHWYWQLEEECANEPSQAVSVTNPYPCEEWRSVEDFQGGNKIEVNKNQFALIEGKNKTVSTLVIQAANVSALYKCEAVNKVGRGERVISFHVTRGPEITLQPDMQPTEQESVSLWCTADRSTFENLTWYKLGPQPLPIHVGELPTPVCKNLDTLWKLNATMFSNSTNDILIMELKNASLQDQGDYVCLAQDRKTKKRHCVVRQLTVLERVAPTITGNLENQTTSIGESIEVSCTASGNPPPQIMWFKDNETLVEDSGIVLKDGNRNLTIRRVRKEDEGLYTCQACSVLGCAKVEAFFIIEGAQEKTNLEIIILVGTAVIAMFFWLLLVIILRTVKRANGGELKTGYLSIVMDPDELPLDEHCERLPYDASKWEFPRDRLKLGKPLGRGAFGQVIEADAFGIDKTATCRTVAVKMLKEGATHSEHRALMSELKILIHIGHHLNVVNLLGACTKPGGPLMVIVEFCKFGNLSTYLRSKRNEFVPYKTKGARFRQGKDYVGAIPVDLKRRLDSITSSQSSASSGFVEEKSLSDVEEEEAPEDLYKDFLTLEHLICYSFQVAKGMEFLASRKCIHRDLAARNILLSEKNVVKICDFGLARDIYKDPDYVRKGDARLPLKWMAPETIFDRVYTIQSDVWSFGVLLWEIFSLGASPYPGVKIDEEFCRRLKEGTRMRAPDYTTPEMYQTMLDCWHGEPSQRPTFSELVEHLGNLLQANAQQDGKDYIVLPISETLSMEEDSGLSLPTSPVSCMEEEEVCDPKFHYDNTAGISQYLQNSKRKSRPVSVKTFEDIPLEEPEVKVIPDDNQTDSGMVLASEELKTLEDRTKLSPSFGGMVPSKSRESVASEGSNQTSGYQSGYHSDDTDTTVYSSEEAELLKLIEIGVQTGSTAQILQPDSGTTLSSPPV

IC50 [1] | IC50 [2, 4] | IC50 [3, 5] | IC50 ([2]; PC-3 cells) | IC50 ([3]; transfected 293A cells) | SMILES
< 100 nM | < 100 nM | < 100 nM |  |  | COc1cnc2c(Oc3c(F)cc(NC(=O)c4c(C)nc(C)c(-c5ccc(F)cc5C)c4O)c(F)c3F)ccnc2c1 [Compound 768, 5-(4-fluoro-2-methylphenyl)-4-hydroxy-2,6-dimethyl-N-[2,3,5-trifluoro-4-[(7-methoxy-1,5-naphthyridin-4-yl)oxy]phenyl]pyridine-3-carboxamide]
< 100 nM | < 100 nM | < 100 nM |  |  | COc1cc2nccc(Oc3ccc(NC(=O)c4c(C)n(CCF)cc(-c5ccc(F)cc5C)c4=O)cc3F)c2nc1OC [Compound 756, N-[4-[(6,7-dimethoxy-1,5-naphthyridin-4-yl)oxy]-3-fluorophenyl]-1-(2-fluoroethyl)-5-(4-fluoro-2-methylphenyl)-2-methyl-4-oxopyridine-3-carboxamide]
100 to 300 nM | < 100 nM | < 100 nM |  |  | CCOCc1nc(C)c(-c2ccc(F)cc2C)c(O)c1C(=O)Nc1ccc(Oc2ccnc3cc(OC)c(OC)nc23)cc1 [Compound 780, N-[4-[(6,7-dimethoxy-1,5-naphthyridin-4-yl)oxy]phenyl]-2-(ethoxymethyl)-5-(4-fluoro-2-methylphenyl)-4-hydroxy-6-methylpyridine-3-carboxamide]
> 300 nM | < 100 nM | < 100 nM |  |  | COc1cc2nccc(Oc3ccc(NC(=O)c4c(C)n(C)c(C)c(-c5ccc(F)cc5C)c4=O)cc3)c2nc1OC [Compound 791, N-[4-[(6,7-dimethoxy-1,5-naphthyridin-4-yl)oxy]phenyl]-5-(4-fluoro-2-methylphenyl)-1,2,6-trimethyl-4-oxopyridine-3-carboxamide]
< 100 nM | < 100 nM | < 100 nM |  |  | COc1cnc2c(Oc3ccc(NC(=O)c4cnc(C)c(-c5ccc(F)cc5OC)c4O)cc3F)ccnc2c1 [Compound 707, N-[3-fluoro-4-[(7-methoxy-1,5-naphthyridin-4-yl)oxy]phenyl]-5-(4-fluoro-2-methoxyphenyl)-4-hydroxy-6-methylpyridine-3-carboxamide]
< 100 nM | < 100 nM | < 100 nM |  |  | COc1cc(-c2c(C)nc(C)c(C(=O)Nc3ccc(Oc4ccnc5cc(OC)c(OC)nc45)c(F)c3)c2O)ccc1F [Compound 709, N-[4-[(6,7-dimethoxy-1,5-naphthyridin-4-yl)oxy]-3-fluorophenyl]-5-(4-fluoro-3-methoxyphenyl)-4-hydroxy-2,6-dimethylpyridine-3-carboxamide]
100 to 300 nM | < 100 nM | < 100 nM |  |  | CCOc1ccn(-c2ccc(F)cc2)c(=O)c1C(=O)Nc1ccc(Oc2ccnc3cc(OC)c(OC)nc23)cc1 [Compound 718, N-[4-[(6,7-dimethoxy-1,5-naphthyridin-4-yl)oxy]phenyl]-4-ethoxy-1-(4-fluorophenyl)-2-oxopyridine-3-carboxamide]
> 300 nM | < 100 nM | < 100 nM |  |  | COc1cc2nccc(Oc3ccc(NC(=O)c4cnc(C)c(-c5ccc(F)cc5)n4)cc3F)c2nc1OC [Compound 764, N-[4-[(6,7-dimethoxy-1,5-naphthyridin-4-yl)oxy]-3-fluorophenyl]-6-(4-fluorophenyl)-5-methylpyrazine-2-carboxamide]
 | < 100 nM | < 100 nM |  |  | COc1ccc(-c2c(C)nc(C)c(C(=O)Nc3ccc(Oc4ccnc5cc(OC)c(OC)nc45)c(F)c3)c2O)c(OC)c1 [Compound 713, N-[4-[(6,7-dimethoxy-1,5-naphthyridin-4-yl)oxy]-3-fluorophenyl]-5-(2,4-dimethoxyphenyl)-4-hydroxy-2,6-dimethylpyridine-3-carboxamide]
> 300 nM | < 100 nM | < 100 nM |  |  | CCOc1ccn(-c2ccc(F)cc2)c(=O)c1C(=O)Nc1ccc(Oc2ccnc3cc(OC)cnc23)cc1 [Compound 717, 4-ethoxy-1-(4-fluorophenyl)-N-[4-[(7-methoxy-1,5-naphthyridin-4-yl)oxy]phenyl]-2-oxopyridine-3-carboxamide]
< 100 nM | < 100 nM | < 100 nM |  |  | COc1cnc2c(Oc3ccc(NC(=O)c4cnc(C)c(-c5ccc(F)c(F)c5)c4O)cc3F)ccnc2c1 [Compound 706, 5-(3,4-difluorophenyl)-N-[3-fluoro-4-[(7-methoxy-1,5-naphthyridin-4-yl)oxy]phenyl]-4-hydroxy-6-methylpyridine-3-carboxamide]
100 to 300 nM | < 100 nM | < 100 nM |  |  | COc1cc2nccc(Oc3ccc(NC(=O)c4c(C)n(CC(F)F)cc(-c5ccc(F)cc5)c4=O)cc3)c2nc1OC [Compound 788, 1-(2,2-difluoroethyl)-N-[4-[(6,7-dimethoxy-1,5-naphthyridin-4-yl)oxy]phenyl]-5-(4-fluorophenyl)-2-methyl-4-oxopyridine-3-carboxamide]
< 100 nM | < 100 nM | < 100 nM |  |  | COc1cc2nccc(Oc3ccc(NC(=O)c4c(C)n(C(F)F)cc(-c5ccc(F)cc5)c4=O)cc3F)c2nc1OC [Compound 729, 1-(difluoromethyl)-N-[4-[(6,7-dimethoxy-1,5-naphthyridin-4-yl)oxy]-3-fluorophenyl]-5-(4-fluorophenyl)-2-methyl-4-oxopyridine-3-carboxamide]
 | < 100 nM | < 100 nM |  |  | COc1cc2c(Oc3ccc(NC(=O)c4nc(C)c(C)n(-c5ccc(F)cc5)c4=O)cc3F)ccnc2cn1 [Compound 714, N-[3-fluoro-4-[(6-methoxy-1,7-naphthyridin-4-yl)oxy]phenyl]-4-(4-fluorophenyl)-5,6-dimethyl-3-oxopyrazine-2-carboxamide]
 |  |  | < 100 nM | < 100 nM | COc1cc2nccc(Oc3ccc(NC(=O)c4c(C)n(CC(F)(F)F)cc(-c5ccc(F)cc5C)c4=O)cc3F)c2nc1OC [Compound 802, N-[4-[(6,7-dimethoxy-1,5-naphthyridin-4-yl)oxy]-3-fluorophenyl]-5-(4-fluoro-2-methylphenyl)-2-methyl-4-oxo-1 (2,2,2-trifluoroethyl)pyridine-3-carboxamide]
